Source: ChEMBL document CHEMBL2417363, “Identification of quinazolinyloxy biaryl urea as a new class of SUMO activating enzyme 1 inhibitors” (Bioorg Med Chem Lett, 2013)
Calls of active or inactive are those of the source. No cut-off for these calls is given here.

Columns and labels:
[1] = biological target: T1, SUMO-activating enzyme (Homo sapiens) (UniProt Q9UBE0+Q9UBT2); experiment: (§1) Inhibition of SUMO E1 (unknown origin)-mediated RanGAP1 sumoylation by immunoblotting analysis; format: protein-complex assay
SUMO-activating enzyme [2] = biological target: T2, SUMO-activating enzyme (Homo sapiens, UniProt Q9UBT2); experiment: as §1; format: protein-complex assay
T2 sequence (Q9UBE0 whole entry): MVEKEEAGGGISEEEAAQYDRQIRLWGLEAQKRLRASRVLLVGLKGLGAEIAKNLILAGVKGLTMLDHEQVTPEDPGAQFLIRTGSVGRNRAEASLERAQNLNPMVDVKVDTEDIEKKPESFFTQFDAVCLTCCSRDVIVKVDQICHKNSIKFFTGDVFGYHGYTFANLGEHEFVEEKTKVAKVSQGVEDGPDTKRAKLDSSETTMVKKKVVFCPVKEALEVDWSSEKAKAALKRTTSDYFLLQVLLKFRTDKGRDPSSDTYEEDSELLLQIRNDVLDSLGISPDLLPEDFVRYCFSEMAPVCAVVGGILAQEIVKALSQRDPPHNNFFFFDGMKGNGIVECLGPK
T2 sequence (Q9UBT2 whole entry): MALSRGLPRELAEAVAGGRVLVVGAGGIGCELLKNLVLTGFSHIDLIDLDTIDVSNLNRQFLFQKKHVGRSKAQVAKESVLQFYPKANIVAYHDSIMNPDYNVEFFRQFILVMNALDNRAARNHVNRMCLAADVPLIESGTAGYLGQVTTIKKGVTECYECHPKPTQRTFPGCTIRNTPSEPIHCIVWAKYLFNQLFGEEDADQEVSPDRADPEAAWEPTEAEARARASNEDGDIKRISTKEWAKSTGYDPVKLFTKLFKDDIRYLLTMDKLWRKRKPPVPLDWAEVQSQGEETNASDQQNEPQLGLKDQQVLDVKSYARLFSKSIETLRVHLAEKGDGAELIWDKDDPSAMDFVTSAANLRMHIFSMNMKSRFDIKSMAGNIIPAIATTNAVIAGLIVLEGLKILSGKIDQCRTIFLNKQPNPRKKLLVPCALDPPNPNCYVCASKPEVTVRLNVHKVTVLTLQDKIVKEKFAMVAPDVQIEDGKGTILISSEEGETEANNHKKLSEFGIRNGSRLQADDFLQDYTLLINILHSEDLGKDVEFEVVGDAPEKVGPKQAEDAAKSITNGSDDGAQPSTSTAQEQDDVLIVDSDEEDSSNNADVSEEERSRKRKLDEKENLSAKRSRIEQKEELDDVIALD

[3] = biological target: T1, SUMO-activating enzyme (Homo sapiens); experiment: Inhibition of SUMO E1 (unknown origin)-mediated RanGAP1 sumoylation at 100 uM by immunoblotting analysis; format: protein-complex assay
[4] = Permeability across human Caco2 cells; format: ADME, cell-based; conditions: Caco-2, read-out: permeability
[5] = Octanol-water partition coefficient, log P of the compound; format: physicochemical
SUMO-activating enzyme [6] = biological target: T2, SUMO-activating enzyme; experiment: Inhibition of SUMO E1 (unknown origin) assessed as SUMO E1-SUMO thioester bond formation; format: protein-complex assay
[7] = biological target: T1, SUMO-activating enzyme (Homo sapiens); experiment: Inhibition of SUMO E1 (unknown origin)-biotinylated SUMO-1 thioester complex formation at 10 uM after 20 mins by SDS-PAGE analysis in presence of ATP; format: protein-complex assay
[8] = biological target: T1, SUMO-activating enzyme (Homo sapiens); experiment: Inhibition of SUMO E1 (unknown origin)-mediated RanGAP1 sumoylation at < 30 uM by immunoblotting analysis; format: protein-complex assay

SMILES	inhibition [1]	IC50 (SUMO-activating enzyme [2])	inhibition [3]	Papp [4]	logP [5]	IC50 (SUMO-activating enzyme [6])	inhibition [7]	inhibition [8]
O=C(Nc1ccc(OCc2ccccc2)cc1)Nc1ccc(Oc2ncnc3cc(Cl)ccc23)nc1	Dose-dependent effect	35.4 µM	Active					
Cc1cccc(NC(=O)Nc2ccc(Cc3ccc(NC(=O)Nc4cccc(C)c4)cc3)cc2)c1				35.4 ×10⁻⁶ cm/s	4.8	14.4 µM		
CCCCCC/C=C\CCCCCCCc1cccc(O)c1C(=O)O							Active	
N#Cc1ccc(NC(=O)Nc2ccc(Cc3ccc(NC(=O)Nc4ccc(C#N)cc4)cc3)cc2)cc1				1.52 ×10⁻⁶ cm/s	2.8	11.1 µM		
COc1ccc(NC(=O)Nc2ccc(Cc3ccc(NC(=O)Nc4ccc(OC)cc4)cc3)cc2)cc1				35.3 ×10⁻⁶ cm/s	4.4	11.7 µM		

Now from value to compound:

inhibition [1]	IC50 (SUMO-activating enzyme [2])	inhibition [3]	Papp [4]	logP [5]	IC50 (SUMO-activating enzyme [6])	inhibition [7]	inhibition [8]	SMILES
Dose-dependent effect	73 µM	Active						O=C(Nc1ccc(F)cc1)Nc1ccc(Oc2ncnc3cc(Cl)ccc23)nc1
Dose-dependent effect	13.4 µM	Active				Active		COc1ccc(NC(=O)Nc2ccc(Oc3ncnc4cc(Cl)ccc34)nc2)cc1OC1CCCC1
Dose-dependent effect	57.3 µM	Active						O=C(Nc1ccccc1)Nc1ccc(Oc2ncnc3cc(Cl)ccc23)nc1
Dose-dependent effect	35.6 µM	Active	66.2 ×10⁻⁶ cm/s	4.5			inactive	O=C(Nc1ccc(Oc2ncnc3cc(Cl)ccc23)nc1)Nc1cccc(C(F)(F)F)c1
